Test results: patent publication US20010006660A1, “LOW-RIGIDITY LIPOSOMAL FORMULATION” (priority 1999, published 2001)

Assays:
[1] = Phase transition / destabilization temperature by differential scan calorimetry; assay type: physicochemical
Procedure: The formulations of liposomes were assessed for their ability to fuse with bacteria. The liposomes were prepared as described above and contained different lipid mixtures. These lipid mixtures were dipalmitoylphosphatidylcholine (DPPC): dimirystoylphosphatidylglycerol (DMPG), DPPC: soybean 1-α-phosphatidylinositol, sodium salt, (PI), and 1,2-di-o-hexadecyl-sn-glycero-3-phosphocholine (DHPC): DMPG. All lipid mixtures were used at ratios of 10:1. PI is negatively charged with a phase transition temperature (Tc) of 23° C., while DHPC is neutral with a Tc of 42° C. All three formulations have a Tc of about 29.5° C. […] The bacterial strain used was Pseudomonas aeruginosa strain 429.
Different tobramycin-encapsulated liposomal formulations were prepared according to Example 1 and analyzed by differential scan colorimetry. Using differential scan calorimetry, the temperatures of phase transition (TC) were calculated for the tobramycin-liposomal formulations listed in Table 2. All these formulations were then listed in vitro to assess the antibiotic kinetics of liberation from the liposomes. In addition, these formulations were tested in a non-infected mouse model as previously described (Omri et al. 1994, Antimicrob. Agents Chemother. 38:1090-1095) to assess the persistence of the liposomes in the lung.

[2] = test system: Burkholderia cepacia (strain ID-28369); experiment: MIC of clinical strain; assay type: cell-based
Xanthomonas maltophilia [3] = experiment: MIC of clinical strain; assay type: cell-based; conditions: Stenotrophomonas maltophilia
[4] = test system: Pseudomonas aeruginosa (strain 429); experiment: MIC of clinical strain; assay type: cell-based
Xanthomonas maltophilia [5] = experiment: In vitro bactericidal activity, viable bacterial counts in proteose peptone; assay type: cell-based; conditions: free tobramycin 3,12 μg/ml, liposomes entrapped tobramycin 3,08 μg/ml
Procedure: To evaluate the bactericidal efficacy of the liposonal tobramycin formulation produced according to the present invention (DPPC/DMPG), in vitro tests were performed against different clinical strains: […] To culture tubes containing proteose peptone (29 ml) a minimal number of 10^8 CFU of bacteria in logarithmic phase (1 ml) and of one of the following preparations (100 μl) were added at time zero: free tobramycin, control liposomes or PBS. Experiments were done in triplicate. At times 1, 3, 6, and 16 hours following the addition of antibiotic or controls, 2 ml of samples were collected and serial 10-fold dilutions were made and spread in triplicate on proteose peptone agar plates for gram negative strains and on […] for S. aureus. CFU were counted after 24-hour and 48-hourS incubations at 37° C. under 5% CO2. Counts were expressed in log CFU per ml of culture media.

[6] = test system: Escherichia coli (strain 1061 mn 88); experiment: MIC of clinical strain; assay type: cell-based
[7] = test system: Staphylococcus aureus (strain LSPQ 2499); experiment: MIC of clinical strain; assay type: cell-based
[8] = test system: Pseudomonas aeruginosa PA 508 (mucoid phenotype); experiment: Bactericidal activity in rat model of chronic pulmonary infection (agar beads); assay type: in vivo; conditions: Sprague-Dawley rats
Procedure: To evaluate the bactericidal efficacy of a liposomal aminoglycoside formulation produced according to the present invention, male, pathogen-free, Sprague-Dawley rats weighing 175 to 225 g (Charles River) were used. Chronic infection in lungs was established by intratracheal administration of 5×10^5 CFU of Pseudomonas aeruginosa PA 508 (mucoid phenotype) prepared in agar beads. After 3 days, three doses (600 μg) of free or liposome-encapsulated tobramycin were given intratracheally at intervals of 16 h. The lipid mixture were DPPC:DMPG at a molar ratio of 10:1 (formula no 1) and DPPC:DMPC at a molar ration of 15:1 (formula no 2). Sixteen hours after the last treatment, the animals were sacrificed and the entire lungs were removed aseptically, weighed, and homogeneized as described previously for mice. Serial 10-fold dilutions of the homogenates in cold PBS were made and spread in triplicate on proteose peptone agar plates. Identification of P. aeruginosa was confirmed by specific cultures. CFU were counted after 24 hour incubations at 37° C. under 5% CO^2. Counts were expressed in log CFU per pair of lungs. PBS and PBS-liposomes were used as controls. A second experiment to study the bactericidal effect of the liposomal tobramycin preparation, produced according to the present invention, was carried out as for Table 4 with the following modifications: 1) liposomes were prepared with a 15:1 molar ratio of DPPC:DMPG (formula no. 3); and 2) only two doses of 240 μg of free or liposome-encapsulated tobramycin were administered to the rats.

[9] = two doses of 240 μg intratracheally, '<significant count' = none or only rare cfu (0 to 6) on plates

## CCCCCCCCCCCCCCCCOC[C@H](COP(=O)([O-])OCC[N+](C)(C)C)OCCCCCCCCCCCCCCCC [DHPC, 1,2-di-o-hexadecyl-sn-glycero-3-phosphocholine]
[1]
  phase transition temperature (Tc): 42 °C

## NC[C@H]1O[C@H](O[C@H]2[C@H](O)[C@@H](O[C@H]3O[C@H](CO)[C@@H](O)[C@H](N)[C@H]3O)[C@H](N)C[C@@H]2N)[C@H](N)C[C@@H]1O [Free tobramycin, tobramycin]
[2]
  MIC: ≥ 27 µg/mL
Xanthomonas maltophilia [3]
  MIC: > 5 µg/mL
[4]
  MIC: ≥ 60 µg/mL
Xanthomonas maltophilia [5]; 0 h
  Viable bacterial counts (cfu): 3,7 × 10^10 cfu
Xanthomonas maltophilia [5]; 1 h after addition
  Viable bacterial counts (cfu): 3,00 × 10^12 cfu
Xanthomonas maltophilia [5]; 3 h after addition
  Viable bacterial counts (cfu): 8,20 × 10^14 cfu
Xanthomonas maltophilia [5]; 6 h after addition
  Viable bacterial counts (cfu): 7,80 × 10^16 cfu
Xanthomonas maltophilia [5]; 16 h after addition
  Viable bacterial counts (cfu): 8,57 × 10^18 cfu
[6]
  MIC: ≥ 5 µg/mL
[7]
  MIC: ≥ 9 µg/mL
[8]; three doses (600 μg) intratracheally at intervals of 16 h, '<significant count' = none or only rare cfu (0 to 4) on plates
  log cfu/pair of lungs: 7.10 log cfu/pair of lungs
[8]; three doses (600 μg) intratracheally at intervals of 16 h, '<significant count' = none or only rare cfu (0 to 4) on plates, counts <30 not statistically significant
  cfu/pair of lungs: 1.25 × 10^7 cfu/pair of lungs
[8]; [9]
  cfu/pair of lungs: 1.07 × 10^6 cfu/pair of lungs
  log cfu/pair of lungs: 6.03 log cfu/pair of lungs

## soybean 1-α-phosphatidylinositol, sodium salt [PI]
[1]
  phase transition temperature (Tc): 23 °C
